Test results: publication PMC7071076, “Antibacterial Activity and Pharmacokinetic Profile of a Promising Antibacterial Agent: 22-(2-Amino-phenylsulfanyl)-22-Deoxypleuromutilin” (Molecules, 2020)
Values after ≈ are worked out from the molar mass of the structure shown. Where a name gives a salt, the structure may show the parent alone. Read-outs that look alike come from different tables or passages of the source.

Tests used:
MRSA ATCC 43300 [1] = system: MRSA ATCC 43300; set-up: method as in PMID 28295316; details: 4× MIC, cited from earlier work
MRSA N20 = test: MIC testing, clinical strain; type: cell-based; details: Staphylococcus aureus
Source text: (§1) Methicillin-resistant Staphylococcus aureus (MRSA) ATCC 43300, Staphylococcus aureus ATCC 29213, Escherichia coli ATCC 25922, Salmonella typhimurium ATCC 14028, Enterococcus faecalis ATCC 29212, and Enterococcus faecium ATCC 35667 were obtained from the China Institute of Veterinary Drug Control (Beijing, China). Five clinical strains of MRSA (N7, N9, N20, N30, and N54) were isolated from diseased pig tissues of South China Agricultural University and Foshan University Animal Hospital. All clinical strains were identified as MRSA by Gram stain, catalase reaction, coagulase test, staphylococcus API identification system test, MecA gene test, and methicillin MIC test.
(§2) The MIC of amphenmulin against MRSA, Escherichia coli, Salmonella typhimurium, Enterococcus faecalis, and Enterococcus faecium were determined using tiamulin as controls. MIC values were measured by the method of previous work. Staphylococcus aureus ATCC 29213 was used as the quality control bacteria, and the quality control range was referred to the Clinical and Laboratory Standards Institute (CLSI). The bacteria solution was diluted to ~10^6 CFU/mL with Mueller–Hinton (MH) broth for MRSA, Escherichia coli and Salmonella typhimurium while Trypticase Soy Broth for Enterococcus faecalis and Enterococcus faecium. Drugs were dissolved in an aqueous solution of N, N-dimethylformamide (DMF) at a concentration of 2560 µg/mL, and then diluted with broth to prepare working solution (1280 µg/mL). The drug susceptibility testing was performed in 96-well plate. A total of 20 µL of working solution was added into column 1 and well mixed as a 10-fold dilution, following which Serial 2-fold dilutions were prepared to provide concentration ranges of 128–0.0078 µg/mL. Blank broth (no cultures) and bacteria solution (drugs replaced by blank solvent) were set as drug-free controls. Each 96-well plate was cultured at 37 °C for 24 h. The MIC value is the lowest concentration of amphenmulin which inhibits the visible growth of bacteria. The experiment was repeated three times.

MRSA N54 = test: MIC testing, clinical strain; type: cell-based; details: Staphylococcus aureus
Source text: as §1, §2

MRSA N9 = test: MIC testing, clinical strain; type: cell-based; details: Staphylococcus aureus
Source text: as §1, §2

MRSA N30 = test: MIC testing, clinical strain; type: cell-based; details: Staphylococcus aureus
Source text: as §1, §2

MRSA N7 = test: MIC testing, clinical strain; type: cell-based; details: Staphylococcus aureus
Source text: as §1, §2

E. coli ATCC 25922 = test: MIC testing (broth dilution, 96-well plate); type: cell-based; details: Escherichia coli, ATCC25922
Method: as §2

S. aureus ATCC 29213 = test: MIC testing (broth dilution, 96-well plate); type: cell-based; details: Staphylococcus aureus, ATCC29213
Method: as §2

E. faecalis ATCC 29212 = test: MIC testing (broth dilution, 96-well plate); type: cell-based; details: Enterococcus faecalis, ATCC29212
Method: as §2

E. faecium ATCC 35667 = test: MIC testing (broth dilution, 96-well plate); type: cell-based; details: Enterococcus faecium, ATCC35667
Method: as §2

[2] = system: S. typhimurium ATCC 14028; test: MIC testing (broth dilution, 96-well plate); type: cell-based; details: Salmonella enterica
Method: as §2

MRSA ATCC 43300 [3] = test: MRSA wound infection model: wound bacterial burden; type: in vivo, mice
Method: (§3) Six weeks SPF-ICR female mice were used for this study. The Experimental model, inducted of inflammatory in mice by skin excision, was established referring to existing methods with some alterations. The mice were anesthetized with the intravenous injection of 1% sodium pentobarbital. After their hair on the back was shaved, the mice were anesthetized and the back skin was perforated with a biopsy perforator at a depth of fascia injury. The inoculum (50 μL), containing 10^9 CFU/mL of the indicated microorganism (MRSA ATCC 43300), was applied on the wound for three times at 30 min intervals. 100 μL drug (3 mg/mL) was administrated on the wound at 1 h after inoculation for three consecutive days. A total of 100 μL blank matrix was given to the infected control group and the non-infected group in the same way. The wound was wrapped with sterile gauze. During the treatment, all mice were kept individually and free to eat and drink.
At the end of the examination, mice were anesthetized and killed. Tissue samples, reaching to the muscle membrane, were removed from the middle of the wound surface and homogenized in 0.9% saline. Serially diluted aliquots of homogenate were cultured on high-salt mannitol agar plate at 37 °C for 24 h. The log of the colony number was used for statistical analysis.

MRSA ATCC 43300 [4] = test: MRSA wound infection model: wound size; type: in vivo, mice; details: after treatment for three days; 100 μL drug (3 mg/mL) on the wound
Method: as §3
The wounds were examined on day 1 and days 3 after treatment. The area of wound were measured according to previous reports with some modifications. In each group, six mice were taken out and anesthetized to take photos and measure the size of the wound as the results.

Compound | PAE (MRSA ATCC 43300 [1]; exposure for 1 h) [h] | PAE (MRSA ATCC 43300 [1]; exposure for 2 h) [h] | MIC (MRSA N20) [µg/mL] | MIC (MRSA N54) [µg/mL] | MIC (MRSA N9) [µg/mL] | MIC (MRSA N30) [µg/mL] | MIC (MRSA N7) [µg/mL] | MIC (E. coli ATCC 25922) [µg/mL] | MIC (S. aureus ATCC 29213) [µg/mL] | MIC (E. faecalis ATCC 29212) [µg/mL] | MIC (E. faecium ATCC 35667) [µg/mL] | MIC [2] [µg/mL] | number of bacteria in wound tissue vs infected group (MRSA ATCC 43300 [3]; one day after treatment, p < 0.05) | number of bacteria in wound tissue (MRSA ATCC 43300 [3]; three days after treatment, 100 μL drug (3 mg/mL) on the wound) [log10 CFU/mL] | wound area (MRSA ATCC 43300 [4]) [cm^2]
C=C[C@]1(C)C[C@@H](OC(=O)CSCCN(CC)CC)[C@]2(C)[C@H](C)CC[C@]3(CCC(=O)[C@H]32)[C@@H](C)[C@@H]1O [Tiamulin, reference compound] | 1.90 | 2.04 | 32 (≈ 64.8 µM) | 0.5 (≈ 1.01 µM) | 0.5 (≈ 1.01 µM) | 32 (≈ 64.8 µM) | 16 (≈ 32.4 µM) | > 128 | 0.5 (≈ 1.01 µM) | > 128 | 2 (≈ 4.05 µM) | > 128 |  |  | 
CN[C@H](CC(C)C)C(=O)N[C@H]1C(=O)N[C@@H](CC(N)=O)C(=O)N[C@H]2C(=O)N[C@H]3C(=O)N[C@H](C(=O)N[C@H](C(=O)O)c4cc(O)cc(O)c4-c4cc3ccc4O)[C@H](O)c3ccc(c(Cl)c3)Oc3cc2cc(c3O[C@@H]2O[C@H](CO)[C@@H](O)[C@H](O)[C@H]2O[C@H]2C[C@](C)(N)[C@H](O)[C@H](C)O2)Oc2ccc(cc2Cl)[C@H]1O [vancomycin, vancomycin hydrochloride, reference compound] |  |  |  |  |  |  |  |  |  |  |  |  | significant decrease | 4.25 ± 0.57 | 0.44 ± 0.07
